Data on two compounds can be found in article PMC9926489, “Chemical Optimization of Selective Pseudomonas aeruginosa LasB Elastase Inhibitors and Their Impact on LasB-Mediated Activation of IL-1β in Cellular and Animal Infection Models” (ACS Infectious Diseases, 2023).

Assay type in all cases: biochemical
In assay [1] the target is T1, rabbit angiotensin-converting enzyme (ACE) (Oryctolagus cuniculus, UniProt P12822).
T1 construct: purchased Sigma
T1 sequence (P12822 34-1310): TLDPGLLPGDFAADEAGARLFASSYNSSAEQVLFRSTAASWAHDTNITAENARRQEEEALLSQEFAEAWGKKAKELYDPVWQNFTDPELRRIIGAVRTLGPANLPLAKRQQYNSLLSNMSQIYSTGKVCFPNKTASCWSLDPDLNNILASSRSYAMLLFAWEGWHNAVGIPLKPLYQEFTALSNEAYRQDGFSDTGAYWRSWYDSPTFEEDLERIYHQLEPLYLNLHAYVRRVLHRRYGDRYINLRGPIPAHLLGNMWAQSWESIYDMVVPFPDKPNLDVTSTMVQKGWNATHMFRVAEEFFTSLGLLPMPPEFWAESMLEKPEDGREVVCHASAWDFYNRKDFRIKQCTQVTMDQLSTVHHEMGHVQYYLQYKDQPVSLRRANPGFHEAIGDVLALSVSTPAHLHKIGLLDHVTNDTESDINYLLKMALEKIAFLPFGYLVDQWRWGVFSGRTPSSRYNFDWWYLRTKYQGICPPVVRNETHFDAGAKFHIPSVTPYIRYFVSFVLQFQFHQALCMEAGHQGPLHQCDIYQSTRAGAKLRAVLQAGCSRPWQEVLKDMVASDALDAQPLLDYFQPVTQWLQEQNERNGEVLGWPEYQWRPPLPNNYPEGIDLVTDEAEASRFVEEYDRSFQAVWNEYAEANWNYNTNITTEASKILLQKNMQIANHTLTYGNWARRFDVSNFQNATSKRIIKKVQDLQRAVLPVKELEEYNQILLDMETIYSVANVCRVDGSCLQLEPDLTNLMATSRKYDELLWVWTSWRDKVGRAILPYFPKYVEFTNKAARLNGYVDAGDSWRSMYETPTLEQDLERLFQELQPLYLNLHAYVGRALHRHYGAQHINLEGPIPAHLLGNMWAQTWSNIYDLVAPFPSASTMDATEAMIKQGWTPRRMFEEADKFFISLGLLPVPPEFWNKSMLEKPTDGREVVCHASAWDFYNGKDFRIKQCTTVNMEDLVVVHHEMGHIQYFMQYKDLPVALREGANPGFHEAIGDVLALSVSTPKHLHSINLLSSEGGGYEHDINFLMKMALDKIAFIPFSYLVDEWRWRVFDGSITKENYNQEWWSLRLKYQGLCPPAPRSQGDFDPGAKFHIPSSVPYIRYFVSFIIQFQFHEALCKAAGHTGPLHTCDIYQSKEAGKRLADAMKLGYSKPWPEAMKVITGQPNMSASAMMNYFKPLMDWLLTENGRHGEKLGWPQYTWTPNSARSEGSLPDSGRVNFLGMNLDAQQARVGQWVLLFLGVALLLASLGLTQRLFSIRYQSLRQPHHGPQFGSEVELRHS
In words: ACE selectivity assay. The method, then:
(§1) Selectivity of compound inhibition was evaluated against other proteases at concentrations between 0.4 and 200 μM. Activity against rabbit angiotensin-converting enzyme (ACE, Sigma) was assessed using 10 μM fluorogenic substrate Abz-Phe-Arg-Lys(Dnp)-P (Enzo Life Sciences) in 100 mM Tris-HCl pH 7, 50 mM NaCl, 10 μM Zn SO4. Activity against human matrix metalloproteases (MMP)-2 and MMP-9 was assessed in 50 mM HEPES pH 7.5, 10 mM CaCl2, 0.01% Triton X-100 using 4 μM fluorogenic substrate Mca-Pro-Leu-Gly-Leu-Dpa-Ala-Arg-NH2 (Enzo Life Sciences). Activity against MMP-1 and MMP-13 was assessed in 25 mM HEPES pH 7.5, 100 mM NaCl, 100 mM CaCl2, 0.0005% Brij using 7.5 μM fluorogenic substrate Mca-Lys-Pro-Leu-Gly-Leu-Dpa-Ala-Arg-NH2 (Sigma) for MMP-1 and 1.25 μM fluorogenic substrate Mca-Pro-Cha-Gly-Nva-His-Ala-Dpa-NH2 (Millipore) for MMP-13. Activity against human neutrophil elastase (HNE, Enzo Life Sciences) was assessed in 100 mM HEPES pH 7.5, 500 mM NaCl, 0.01% of Triton X-100 using 100 μM fluorogenic substrate MeOSuc-AAPV-AMC (Enzo Life Sciences).

The target in the next assay is T2, MMP-2 (Homo sapiens, UniProt P08253).
T2 sequence (P08253 110-660): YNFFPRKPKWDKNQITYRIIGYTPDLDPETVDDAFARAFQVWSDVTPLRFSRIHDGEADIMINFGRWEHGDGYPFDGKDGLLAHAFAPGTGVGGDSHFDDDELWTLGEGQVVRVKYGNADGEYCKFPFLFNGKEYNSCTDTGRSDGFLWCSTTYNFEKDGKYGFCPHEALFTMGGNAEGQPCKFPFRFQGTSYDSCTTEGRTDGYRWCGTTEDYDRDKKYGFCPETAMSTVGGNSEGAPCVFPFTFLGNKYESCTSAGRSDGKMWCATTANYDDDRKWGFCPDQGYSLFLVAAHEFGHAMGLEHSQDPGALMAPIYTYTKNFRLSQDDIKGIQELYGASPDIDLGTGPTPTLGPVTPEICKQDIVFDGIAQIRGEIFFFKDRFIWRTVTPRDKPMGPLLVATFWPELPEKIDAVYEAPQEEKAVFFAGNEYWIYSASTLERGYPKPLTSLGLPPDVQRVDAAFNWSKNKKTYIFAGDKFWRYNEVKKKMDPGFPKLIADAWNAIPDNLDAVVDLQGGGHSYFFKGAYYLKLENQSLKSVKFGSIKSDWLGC
Nature of the assay: MMP-2 selectivity assay. The following applies: human MMP-2. The method, then: as §1

For another assay, the target named is T3, MMP-1 (Homo sapiens, UniProt P03956).
T3 sequence (P03956 100-469): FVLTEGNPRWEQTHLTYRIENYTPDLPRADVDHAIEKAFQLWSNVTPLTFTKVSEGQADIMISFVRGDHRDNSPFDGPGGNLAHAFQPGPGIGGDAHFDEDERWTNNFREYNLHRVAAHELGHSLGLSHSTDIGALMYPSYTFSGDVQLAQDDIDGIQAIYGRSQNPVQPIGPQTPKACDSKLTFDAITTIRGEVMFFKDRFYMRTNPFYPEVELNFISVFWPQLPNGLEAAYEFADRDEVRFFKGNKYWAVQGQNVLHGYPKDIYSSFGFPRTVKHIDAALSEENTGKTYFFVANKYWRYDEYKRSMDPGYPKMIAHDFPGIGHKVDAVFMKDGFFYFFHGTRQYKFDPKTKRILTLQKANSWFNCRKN
In words: MMP-1 selectivity assay. As to conditions: human MMP-1. The method, then: as §1

Like-named read-outs stand apart in the source and are kept apart here.

One may read the IC50 as the concentration needed to halve the response being measured. As for `COc1cc2sc(CNC(=O)C3(CC(=O)O)Cc4ccccc4C3)nc2cc1OCCC[N+](C)(C)C` [Compound 12], the IC50 was more than 200 µM in assay [1] (rabbit ACE, read-out: selectivity IC50, ACE); more than 200 µM against MMP-2; more than 100 µM against MMP-1.

On to `COc1cc2sc(CNC(=O)C3(CC(=O)O)Cc4cc(F)c(F)cc4C3)nc2cc1OCCC[N+](C)(CCO)CCO` [Compound 16], for which the IC50 in assay [1] is more than 200 µM; on MMP-2, more than 200 µM; on MMP-1 it was more than 100 µM.
